Assay: molar heat capacity at constant pressure
Details: 101.33 kPa

OC[C@H](O)C(O)[C@@H](O)CO [L-(-)-arabitol]
molar heat capacity at constant pressure [J/K/mol]
Details | Small sample (50 mg) DSC | relaxation calorimetry
244.15 K, Crystal | 168.75 | –
245.15 K, Crystal | 169.35 | –
246.15 K, Crystal | 169.88 | –
247.15 K, Crystal | 170.55 | –
248.15 K, Crystal | 171.06 | –
249.15 K, Crystal | 171.85 | –
250 K, Crystal | – | 173.24
250.15 K, Crystal | 172.59 | –
251.15 K, Crystal | 173.21 | –
251.96 K, Crystal | – | 174.6
252.15 K, Crystal | 173.86 | –
253.15 K, Crystal | 174.57 | –
254.15 K, Crystal | 175.18 | –
255.15 K, Crystal | 176.03 | –
256.15 K, Crystal | 176.9 | –
257.15 K, Crystal | 177.61 | –
258.15 K, Crystal | 178.4 | –
259.15 K, Crystal | 179.26 | –
260 K, Crystal | – | 179.82
260.15 K, Crystal | 180.04 | –
261.15 K, Crystal | 180.97 | –
262.07 K, Crystal | – | 180.97
262.15 K, Crystal | 181.78 | –
263.15 K, Crystal | 182.59 | –
264.15 K, Crystal | 183.52 | –
265.15 K, Crystal | 184.23 | –
266.15 K, Crystal | 184.83 | –
267.15 K, Crystal | 185.69 | –
268.15 K, Crystal | 186.57 | –
269.15 K, Crystal | 187.58 | –
270 K, Crystal | – | 186.56
270.15 K, Crystal | 188.37 | –
271.15 K, Crystal | 189.06 | –
272.13 K, Crystal | – | 188.16
272.15 K, Crystal | 189.78 | –
273.15 K, Crystal | 190.61 | 188.71
274.15 K, Crystal | 191.19 | –
275.15 K, Crystal | 191.83 | –
276.15 K, Crystal | 192.48 | –
277.15 K, Crystal | 193.16 | –
278.15 K, Crystal | 193.84 | –
279.15 K, Crystal | 194.6 | –
280 K, Crystal | – | 193.46
280.15 K, Crystal | 195.16 | –
281.15 K, Crystal | 195.85 | –
282.15 K, Crystal | 196.47 | –
282.16 K, Crystal | – | 194.74
283.15 K, Crystal | 197.03 | –
284.15 K, Crystal | 197.67 | –
285.15 K, Crystal | 198.35 | –
286.15 K, Crystal | 198.9 | –
287.15 K, Crystal | 199.37 | –
288.15 K, Crystal | 200.05 | –
289.15 K, Crystal | 200.75 | –
290 K, Crystal | – | 200.53
290.15 K, Crystal | 201.49 | –
291.15 K, Crystal | 202.11 | –
292.15 K, Crystal | 202.64 | –
292.27 K, Crystal | – | 201.73
293.15 K, Crystal | 203.3 | –
294.15 K, Crystal | 203.94 | –
295.15 K, Crystal | 204.77 | –
296.15 K, Crystal | 205.37 | –
297.15 K, Crystal | 206.12 | –
298.15 K, Crystal | 206.77 | 206.44
299.15 K, Crystal | 207.42 | –
300 K, Crystal | – | 207.8
300.15 K, Crystal | 208.27 | –
301.15 K, Crystal | 209.11 | –
302.15 K, Crystal | 209.85 | –
302.3 K, Crystal | – | 209.95
303.15 K, Crystal | 210.71 | –
304.15 K, Crystal | 211.4 | –
305 K, Crystal | 212.36 | –
305.15 K, Crystal | 212.38 | –
306.15 K, Crystal | 213.15 | –
307.15 K, Crystal | 214.11 | –
308.15 K, Crystal | 215.16 | –
309.15 K, Crystal | 216.11 | –
310 K, Crystal | 217.12 | –
310.15 K, Crystal | 217.05 | –
311.15 K, Crystal | 218.22 | –
312.15 K, Crystal | 219.18 | –
313.15 K, Crystal | 220.1 | –
314.15 K, Crystal | 221.04 | –
315 K, Crystal | 221.96 | –
315.15 K, Crystal | 222.13 | –
316.15 K, Crystal | 223.18 | –
317.15 K, Crystal | 224.21 | –
318.15 K, Crystal | 225.16 | –
319.15 K, Crystal | 226.14 | –
320 K, Crystal | 226.85 | –
320.15 K, Crystal | 227.12 | –
321.15 K, Crystal | 228.27 | –
322.15 K, Crystal | 229.22 | –
323.15 K, Crystal | 230.47 | –
324.15 K, Crystal | 231.33 | –
325 K, Crystal | 231.9 | –
325.15 K, Crystal | 232.46 | –
326.15 K, Crystal | 233.49 | –
327.15 K, Crystal | 234.58 | –
328.15 K, Crystal | 235.6 | –
329.15 K, Crystal | 236.61 | –
330 K, Crystal | 237.4 | –
330.15 K, Crystal | 237.74 | –
331.15 K, Crystal | 238.74 | –
332.15 K, Crystal | 239.92 | –
333.15 K, Crystal | 241.19 | –
335 K, Crystal | 243.8 | –
340 K, Crystal | 251.69 | –
345 K, Crystal | 261.85 | –
387.05 K, Liquid | 440.32 | –
387.15 K, Liquid | 440.19 | –
388.15 K, Liquid | 440.32 | –
389.15 K, Liquid | 440.39 | –
390 K, Liquid | 440.74 | –
390.15 K, Liquid | 440.65 | –
391.15 K, Liquid | 440.67 | –
392.15 K, Liquid | 440.92 | –
393.15 K, Liquid | 441.37 | –
394.15 K, Liquid | 441.72 | –
395 K, Liquid | 442.06 | –
395.15 K, Liquid | 441.9 | –
396.15 K, Liquid | 442.46 | –
397.15 K, Liquid | 443.18 | –
398.15 K, Liquid | 443.38 | –
399.15 K, Liquid | 443.7 | –
400 K, Liquid | 443.76 | –
400.15 K, Liquid | 444.18 | –
401.15 K, Liquid | 444.55 | –
402.15 K, Liquid | 444.8 | –
403.15 K, Liquid | 445.3 | –
404.15 K, Liquid | 445.48 | –
405 K, Liquid | 445.85 | –
405.15 K, Liquid | 445.82 | –
406.15 K, Liquid | 446.12 | –
407.15 K, Liquid | 446.57 | –
408.15 K, Liquid | 447.22 | –
409.15 K, Liquid | 447.57 | –
410 K, Liquid | 448.32 | –
410.15 K, Liquid | 448.06 | –
411.15 K, Liquid | 448.75 | –
412.15 K, Liquid | 449.48 | –
413.15 K, Liquid | 450.17 | –
414.15 K, Liquid | 450.82 | –
415 K, Liquid | 451.18 | –
415.15 K, Liquid | 451.25 | –
416.15 K, Liquid | 451.74 | –
417.15 K, Liquid | 452.58 | –
418.15 K, Liquid | 453.6 | –

— the NIST ThermoML archive (doi:10.1016/j.jct.2017.08.004)
